Assay results as given in patent US11369111B2, “Synergistic composition of nematicide comprising of chalcones” (priority 2017, dated 2022).

Assays:
root-knot nematodes = assay: Gall formation in roots of infected cucumber plants (root gall index); type: in vivo
cucumber crop = assay: Effect on growth of cucumber plants in a poly house; type: in vivo
[1] = test system: root knot nematodes in soil; assay: Effect on root knot nematodes in soil; type: in vivo, Meloidogyne
Caenorhabditis elegans = settings: 10^−4 M, laboratory conditions, individually; cited from earlier work
[2] = test system: P. aeruginosa (Gram negative); assay: Effect of chalcones on common microorganisms (CFU on nutrient agar plates); type: cell-based, Pseudomonas aeruginosa; settings: for Effect on microorganism (Colony Forming Units): 24-48 hours
Method: (§1) Two common soil microorganisms (Pseudomonas aeruginosa and Bacillus subtilis) and two common laboratory microorganisms (Escherichia coli, and Saccharomyces cerevisiae) were tested for the effects of individual chalcones. Microorganisms were grown on nutrient agar plates containing 10^−4, 10^−5, or 10^−6 M concentrations of chalcones and Colony Forming Units (CFU) were counted after 24-48 hours of growth in nutrient agar plates.

S. cerevisiae = assay: as above; type: cell-based, Saccharomyces cerevisiae; settings: for Effect on microorganism (Colony Forming Units): 24-48 hours
Method: as §1

E. coli (Gram negative) = assay: as above; type: cell-based, Escherichia coli; settings: for Effect on microorganism (Colony Forming Units): 24-48 hours
Method: as §1

[3] = test system: B. subtilis (Gram positive); assay: as above; type: cell-based, Bacillus subtilis; settings: for Effect on microorganism (Colony Forming Units): 24-48 hours
Method: as §1

SMILES: CNC(=O)Oc1cccc2c1OC(C)(C)C2 [Carbofuran]
- Root gall index (Day 1) (root-knot nematodes; Day 1): 1
- Root gall index (Day 25 of treatment) (root-knot nematodes; Day 25 of treatment): 2 (2=1-25%)
- Root gall index (Day 45-20 days after second treatment) (root-knot nematodes; Day 45, 20 days after second treatment): 4 (4=51-75%)
- increase in shoot length compared to untreated plants (cucumber crop; Day 10 (FIG. 3)): did not show similar positive effect
- increase in leaf length compared to untreated plants (cucumber crop; Day 10 (FIG. 6)): did not show similar positive effect
- increase in number of flowers compared to untreated plants (cucumber crop; Day 10 (FIG. 9)): did not show similar positive effect
- increase in shoot length compared to untreated plants (cucumber crop; Day 21 (FIG. 4)): did not have similar positive effect
- increase in leaf length compared to untreated plants (cucumber crop; Day 21 (FIG. 7)): did not show similar positive effect
- increase in number of flowers compared to untreated plants (cucumber crop; Day 21 (FIG. 10)): did not show similar positive effect
- increase in number of fruits compared to untreated plants (cucumber crop; Day 21 (FIG. 12)): did not show similar positive effect
- increase in number of fruits compared to untreated plants (cucumber crop; Day 21 (FIG. 13)): did not show similar positive effect
- increase in number of fruits compared to untreated plants (cucumber crop; Day 21 (FIG. 14)): did not show similar positive effect
- increase in shoot length compared to untreated plants (cucumber crop; Day 35 (FIG. 5)): did not show similar positive effect
- increase in leaf length compared to untreated plants (cucumber crop; Day 35 (FIG. 8)): did not show similar positive effect
- increase in number of flowers compared to untreated plants (cucumber crop; Day 35 (FIG. 11)): did not show similar positive effect
- Percentage Change compared to untreated, Average Leaf length (cucumber crop; after 28 days of treatment): 6%
- Percentage Change compared to untreated, Average Shoot length (cucumber crop; after 28 days of treatment): 3%
- Percentage Change compared to untreated, Average number of flowers (cucumber crop; after 28 days of treatment): −9%
- Percentage Change compared to untreated, Average number of fruits (cucumber crop; after 28 days of treatment): 50%
- effect on nematodes in the soil ([1]; after 14 days, even at higher dosages): did not show any significant effect
- efficacy in killing and maintaining a small number of nematodes in soil ([1]; after 19 days of treatment (FIG. 17-19)): do not have the same positive effect

SMILES: O=C(/C=C/c1ccccc1)c1ccc(Cl)cc1Cl [Chalcone 17, (2E)-1-(2,4-Dichlorophenyl)-3-phenyl-2-propen-1-one]
- nematicidal activity (Caenorhabditis elegans): shown nematicidal activity
- effect on growth of microorganism [2]: limit the growth
- Effect on microorganism (Colony Forming Units) ([2]; 10^−4 M): 55.8
- Effect on microorganism (Colony Forming Units) ([2]; 10^−5 M): 53.9
- Effect on microorganism (Colony Forming Units) ([2]; 10^−6 M): 56.0
- Effect on microorganism (Colony Forming Units) (S. cerevisiae; 10^−4 M): 97.0
- Effect on microorganism (Colony Forming Units) (S. cerevisiae; 10^−5 M): 82.8
- Effect on microorganism (Colony Forming Units) (S. cerevisiae; 10^−6 M): 106.7
- Effect on microorganism (Colony Forming Units) (E. coli (Gram negative); 10^−4 M): 115.4
- Effect on microorganism (Colony Forming Units) (E. coli (Gram negative); 10^−5 M): 131.3
- Effect on microorganism (Colony Forming Units) (E. coli (Gram negative); 10^−6 M): 97.3
- effect on growth of microorganism [3]: limit the growth
- Effect on microorganism (Colony Forming Units) ([3]; 10^−4 M): 69.0
- Effect on microorganism (Colony Forming Units) ([3]; 10^−5 M): 51.4
- Effect on microorganism (Colony Forming Units) ([3]; 10^−6 M): 50.8

SMILES: CCOc1ccc(C(=O)/C=C/c2ccccc2)cc1 [Chalcone 25, (2E)-1-(4-Ethoxyphenyl)-3-phenyl-2-propen-1-one]
- nematicidal activity (Caenorhabditis elegans): shown nematicidal activity
- effect on growth of microorganism [2]: promote the growth
- Effect on microorganism (Colony Forming Units) ([2]; 10^−4 M): 148.8
- Effect on microorganism (Colony Forming Units) ([2]; 10^−5 M): 148.1
- Effect on microorganism (Colony Forming Units) ([2]; 10^−6 M): 141.2
- effect on growth of microorganism (S. cerevisiae): does not affect the growth
- Effect on microorganism (Colony Forming Units) (S. cerevisiae; 10^−4 M): 97.8
- Effect on microorganism (Colony Forming Units) (S. cerevisiae; 10^−5 M): 125.4
- Effect on microorganism (Colony Forming Units) (S. cerevisiae; 10^−6 M): 90.3
- effect on growth of microorganism (E. coli (Gram negative)): does not affect the growth
- Effect on microorganism (Colony Forming Units) (E. coli (Gram negative); 10^−4 M): 52.3
- Effect on microorganism (Colony Forming Units) (E. coli (Gram negative); 10^−5 M): 69.6
- Effect on microorganism (Colony Forming Units) (E. coli (Gram negative); 10^−6 M): 103.3
- effect on growth of microorganism [3]: limit the growth
- Effect on microorganism (Colony Forming Units) ([3]; 10^−4 M): 55.1
- Effect on microorganism (Colony Forming Units) ([3]; 10^−5 M): 55.9
- Effect on microorganism (Colony Forming Units) ([3]; 10^−6 M): 83.6

SMILES: O=C(/C=C/c1ccccc1)c1cccs1 [Chalcone 30, (2E)-3-Phenyl-1-(2-thienyl)-2-propen-1-one]
- nematicidal activity (Caenorhabditis elegans): shown nematicidal activity
